Laboratory results from patent US9326506B2, “Preparation method, agricultural composition and applications of natural brassinolide analogs” (CHENGDU NEWSUN CROPSCIENCE CO., LTD, priority 2012, dated 2016).

Experiments:
rice = experiment: Rice leaf bending assay (leaf inclination angle); format: in vivo; conditions: for Average angle / Total angle: 48 hr; for Total angle: sum of 20 rice; for Effects on leaf inclination compared among analogues: in the case of high concentrations
Text: According to a rice leaf bending assay, we measured leaf inclination angle of rice to determine effects of the natural brassinolide analogues on the enhancement of plant development. The larger the leaf inclination angle of rice, the more effects on plant development. The detailed assay procedure is as follows:
The natural brassinolide analogues, BR1, BR2, BR3, BR4, BR5 and BR6, used herein, were those prepared by the method of Example 1. And BR1, BR2, BR3, BR4, BR5 and BR6 were mixed into a mixture of brassinolide analogues (referred to as “BRs”, in which the weight ratio of BR1:BR2:BR3:BR4:BR5:BR6 is 0.4:0.4:0.4:0.4:0.4:98). Respectively the analogues and the mixture were dissolved into 95% (V/V) ethanol solution, and then diluted with pure water to 1 mg/L, 0.1 mg/L, 0.01 mg/L, 0.001 mg/L and 0.0001 mg/L. In addition, pure water was used as a control.
After rice seeds were disinfected by using 5% sodium hypochlorite solution treatment, they were rinsed with distilled water until their pH>7, placed into a petri dish in a dark incubator, and cultured by using water at 30° C.±2° C. for 9 days. Then the nine-day-old etiolated seedlings of rice were cut around the center of the base of second leaf to segments with 1 cm leaf and 1 cm leaf sheath. The leaf segments were floated in distilled water, placed in a dark incubator, cultured at 30° C.±2° C. for 24 hr, and then dried by a filter paper. The dried leaf segments were respectively immersed in the above solutions containing different concentrations of the natural brassinolide analogues or pure water, and cultured in a dark incubator at 30° C.±2° C. for 48 hr. Every solution or pure water contained the leaf segments from 20 rice. Then the inclination angle between the second leaf and the leaf sheath of the leaf segments was measured by a protractor.

rice seed = experiment: Salt tolerance assay: germination of rice seed under high salt environment; format: in vivo
Text: According to a salt tolerance assay, we measured germination of rice seed under high salt environment to determine effects of the natural brassinolide analogues on the salt tolerance of a plant.
The natural brassinolide analogues, BR1, BR2, BR3, BR4, BR5 and BR6, used herein, were those prepared by the method of Example 1. And BR1, BR2, BR3, BR4, BR5 and BR6 were mixed into a mixture of brassinolide analogues (referred to as “BRs”, in which the weight ratio of BR1:BR2:BR3:BR4:BR5:BR6 is 0.4:0.4:0.4:0.4:0.4:98). Respectively the analogues and the mixture were dissolved into 95% (V/V) ethanol solution, and then diluted with pure water to 1 mg/L, 0.1 mg/L, 0.01 mg/L, 0.001 mg/L and 0.0001 mg/L. In addition, pure water was used as a control. Furthermore, NaCl was added to the above solutions containing different concentrations of the natural brassinolide analogues or pure water respectively, and the concentrations of the salt are 300, 400, 500 and 600 mg/L respectively.
After rice seeds were disinfected by using 5% sodium hypochlorite solution treatment, they were rinsed with distilled water until their pH>7, placed into a petri dish in a dark incubator, and cultured at 30° C.±2° C. by using the above solutions containing different concentrations of the natural brassinolide analogues or pure water for observing the germination and calculating germination rates. The results are shown in tables 4-0˜4-4, which indicate that relative to the control, each of the natural brassinolide analogues and the mixture were capable of increasing germination rates of rice under high salt environment so as to enhance the salt tolerance of a plant; and substantially the enhancement of the germination rates was positively correlated to the concentrations of the natural brassinolide analogues and the mixture.

[1] = rice seed, sample 0.0001 mg/l, salt (NaCl) 300 mg/l
[2] = rice seed, sample 0.0001 mg/l, salt (NaCl) 400 mg/l
[3] = rice seed, sample 0.0001 mg/l, salt (NaCl) 500 mg/l
[4] = rice seed, sample 0.0001 mg/l, salt (NaCl) 600 mg/l
[5] = rice seed, sample 0.001 mg/l, salt (NaCl) 300 mg/l
[6] = rice seed, sample 0.001 mg/l, salt (NaCl) 400 mg/l
[7] = rice seed, sample 0.001 mg/l, salt (NaCl) 500 mg/l
[8] = rice seed, sample 0.001 mg/l, salt (NaCl) 600 mg/l
[9] = rice seed, sample 0.01 mg/l, salt (NaCl) 300 mg/l
[10] = rice seed, sample 0.01 mg/l, salt (NaCl) 400 mg/l
[11] = rice seed, sample 0.01 mg/l, salt (NaCl) 500 mg/l
[12] = rice seed, sample 0.01 mg/l, salt (NaCl) 600 mg/l
[13] = rice seed, sample 0.1 mg/l, salt (NaCl) 300 mg/l
[14] = rice seed, sample 0.1 mg/l, salt (NaCl) 400 mg/l
[15] = rice seed, sample 0.1 mg/l, salt (NaCl) 500 mg/l
[16] = rice seed, sample 0.1 mg/l, salt (NaCl) 600 mg/l
[17] = rice seed, sample 1 mg/l, salt (NaCl) 300 mg/l
[18] = rice seed, sample 1 mg/l, salt (NaCl) 400 mg/l
[19] = rice seed, sample 1 mg/l, salt (NaCl) 500 mg/l
[20] = rice seed, sample 1 mg/l, salt (NaCl) 600 mg/l

`CC(C)[C@H](C)[C@@H](O)[C@H](O)[C@@H](C)[C@H]1CCC2C3CC(=O)C4C[C@H](O)CC[C@]4(C)C3CC[C@@]21C` (some centres unmarked) [BR4] showed an Average angle (rice; 0.0001 mg/l) of 3.8 degree, a Total angle (rice; 0.0001 mg/l) of 76 degree and an Average angle (rice; 0.001 mg/l) of 6.5 degree. The Total angle (rice; 0.001 mg/l) was 130 degree, the Average angle (rice; 0.01 mg/l) was 12.25 degree and the Total angle (rice; 0.01 mg/l) was 245 degree. It also gave an Average angle (rice; 0.1 mg/l) of 21.4 degree, a Total angle (rice; 0.1 mg/l) of 428 degree and an Average angle (rice; 1 mg/l) of 64 degree. The Total angle (rice; 1 mg/l) was 1280 degree, the Germination rate (rice seed; sample 0.0001 mg/l, salt 300 mg/l) was 50% and the Germination rate (rice seed; sample 0.0001 mg/l, salt 400 mg/l) was 47%. It also gave a Germination rate (rice seed; sample 0.0001 mg/l, salt 500 mg/l) of 42%, a Germination rate (rice seed; sample 0.0001 mg/l, salt 600 mg/l) of 36% and a Germination rate (rice seed; sample 0.001 mg/l, salt 300 mg/l) of 51%. For the same compound, the Germination rate (rice seed; sample 0.001 mg/l, salt 400 mg/l) was 49%, the Germination rate (rice seed; sample 0.001 mg/l, salt 500 mg/l) was 43% and the Germination rate (rice seed; sample 0.001 mg/l, salt 600 mg/l) was 37%. The Germination rate (rice seed; sample 0.01 mg/l, salt 300 mg/l) was 55%, the Germination rate (rice seed; sample 0.01 mg/l, salt 400 mg/l) was 52% and the Germination rate (rice seed; sample 0.01 mg/l, salt 500 mg/l) was 47%. The Germination rate (rice seed; sample 0.01 mg/l, salt 600 mg/l) was 39%, the Germination rate (rice seed; sample 0.1 mg/l, salt 300 mg/l) was 58% and the Germination rate (rice seed; sample 0.1 mg/l, salt 400 mg/l) was 50%. It also gave a Germination rate (rice seed; sample 0.1 mg/l, salt 500 mg/l) of 49%, a Germination rate (rice seed; sample 0.1 mg/l, salt 600 mg/l) of 40% and a Germination rate (rice seed; sample 1 mg/l, salt 300 mg/l) of 60%. It also gave a Germination rate (rice seed; sample 1 mg/l, salt 400 mg/l) of 55%, a Germination rate (rice seed; sample 1 mg/l, salt 500 mg/l) of 50% and a Germination rate (rice seed; sample 1 mg/l, salt 600 mg/l) of 41%.
Compound `CC(C)C[C@@H](O)[C@H](O)[C@@H](C)[C@H]1CCC2C3CC(=O)C4C[C@H](O)[C@H](O)C[C@]4(C)C3CC[C@@]21C` (some centres unmarked) [BR5] has an Average angle (rice; 0.0001 mg/l) of 3.9 degree, a Total angle (rice; 0.0001 mg/l) of 78 degree and an Average angle (rice; 0.001 mg/l) of 9.3 degree. It also gave a Total angle (rice; 0.001 mg/l) of 186 degree, an Average angle (rice; 0.01 mg/l) of 20.05 degree and a Total angle (rice; 0.01 mg/l) of 401 degree. It also gave an Average angle (rice; 0.1 mg/l) of 35 degree, a Total angle (rice; 0.1 mg/l) of 700 degree and an Average angle (rice; 1 mg/l) of 110 degree. For the same compound, the Total angle (rice; 1 mg/l) was 2200 degree, the “Effects on leaf inclination compared among analogues” value (rice) was “more than those of BR2, BR3 and BR4” and the Germination rate (rice seed; [1]) was 50%. For the same compound, the Germination rate (rice seed; [2]) was 48%, the Germination rate (rice seed; [3]) was 42% and the Germination rate (rice seed; [4]) was 36%. The Germination rate (rice seed; [5]) was 52%, the Germination rate (rice seed; [6]) was 49% and the Germination rate (rice seed; [7]) was 45%. It also gave a Germination rate (rice seed; [8]) of 38%, a Germination rate (rice seed; [9]) of 56% and a Germination rate (rice seed; [10]) of 51%. For the same compound, the Germination rate (rice seed; [11]) was 47%, the Germination rate (rice seed; [12]) was 39% and the Germination rate (rice seed; [13]) was 58%. For the same compound, the Germination rate (rice seed; [14]) was 52%, the Germination rate (rice seed; [15]) was 43% and the Germination rate (rice seed; [16]) was 40%. For the same compound, the Germination rate (rice seed; [17]) was 62%, the Germination rate (rice seed; [18]) was 55% and the Germination rate (rice seed; [19]) was 50%. The Germination rate (rice seed; [20]) was 42%.
With `CC(C)(O)CC[C@@H](O)[C@](C)(O)[C@H]1CC[C@@]2(O)[C@@H]3CC(=O)[C@@H]4C[C@@H](O)[C@@H](O)C[C@]4(C)[C@H]3CC[C@]12C` [BR6] the Average angle (rice; 0.0001 mg/l) was 4.25 degree, the Total angle (rice; 0.0001 mg/l) was 85 degree and the Average angle (rice; 0.001 mg/l) was 7.1 degree. For the same compound, the Total angle (rice; 0.001 mg/l) was 142 degree, the Average angle (rice; 0.01 mg/l) was 23 degree and the Total angle (rice; 0.01 mg/l) was 460 degree. It also gave an Average angle (rice; 0.1 mg/l) of 35.5 degree, a Total angle (rice; 0.1 mg/l) of 710 degree and an Average angle (rice; 1 mg/l) of 109 degree. The Total angle (rice; 1 mg/l) was 2180 degree, the “Effects on leaf inclination compared among analogues” value (rice) was “more than those of BR2, BR3 and BR4” and the Germination rate (rice seed; [1]) was 52%. The Germination rate (rice seed; [2]) was 48%, the Germination rate (rice seed; [3]) was 42% and the Germination rate (rice seed; [4]) was 36%. The Germination rate (rice seed; [5]) was 53%, the Germination rate (rice seed; [6]) was 50% and the Germination rate (rice seed; [7]) was 44%. The Germination rate (rice seed; [8]) was 37%, the Germination rate (rice seed; [9]) was 55% and the Germination rate (rice seed; [10]) was 51%. It also gave a Germination rate (rice seed; [11]) of 46%, a Germination rate (rice seed; [12]) of 39% and a Germination rate (rice seed; [13]) of 58%. For the same compound, the Germination rate (rice seed; [14]) was 53%, the Germination rate (rice seed; [15]) was 47% and the Germination rate (rice seed; [16]) was 42%. The Germination rate (rice seed; [17]) was 68%, the Germination rate (rice seed; [18]) was 55% and the Germination rate (rice seed; [19]) was 52%. It also gave a Germination rate (rice seed; [20]) of 44%.
